For this assay, the system named is AlmA. The format is biochemical, Streptomyces sp. A012304. The conditions noted are these: succinyl-CoA regenerated, 20 mM HEPES-NaOH pH 7.5, 20 μM PLP, 3 mM MgCl2, 37°C, 0.01 μM enzyme.

Among the data in article PMC9356726 (Molecular Biology and Evolution, 2022) are Km values, retold here.

As a reminder, the Km is the substrate concentration at which the rate is half of its maximum. In the case of `N[C@@H](CO)C(=O)O` [serine], the Michaelis constant (Km) stood at 6.8 ± 1.4 mM.
